The target in one assay is PI3Kδ (Homo sapiens, UniProt O00329). The settings on record: cited from earlier work.
The target in a further assay is mTOR (Homo sapiens, UniProt P42345). The settings on record: cited from earlier work.
The target in another assay is PI3Kβ (Homo sapiens, UniProt P42338). The settings on record: cited from earlier work.
The next assay deals with PI3Kα (Homo sapiens, UniProt P42336). To be noted: cited from earlier work.
For another assay, the target named is PI3Kγ (Homo sapiens, UniProt P48736). The settings on record: cited from earlier work.
Chain of PI3Kγ (P48736 whole entry): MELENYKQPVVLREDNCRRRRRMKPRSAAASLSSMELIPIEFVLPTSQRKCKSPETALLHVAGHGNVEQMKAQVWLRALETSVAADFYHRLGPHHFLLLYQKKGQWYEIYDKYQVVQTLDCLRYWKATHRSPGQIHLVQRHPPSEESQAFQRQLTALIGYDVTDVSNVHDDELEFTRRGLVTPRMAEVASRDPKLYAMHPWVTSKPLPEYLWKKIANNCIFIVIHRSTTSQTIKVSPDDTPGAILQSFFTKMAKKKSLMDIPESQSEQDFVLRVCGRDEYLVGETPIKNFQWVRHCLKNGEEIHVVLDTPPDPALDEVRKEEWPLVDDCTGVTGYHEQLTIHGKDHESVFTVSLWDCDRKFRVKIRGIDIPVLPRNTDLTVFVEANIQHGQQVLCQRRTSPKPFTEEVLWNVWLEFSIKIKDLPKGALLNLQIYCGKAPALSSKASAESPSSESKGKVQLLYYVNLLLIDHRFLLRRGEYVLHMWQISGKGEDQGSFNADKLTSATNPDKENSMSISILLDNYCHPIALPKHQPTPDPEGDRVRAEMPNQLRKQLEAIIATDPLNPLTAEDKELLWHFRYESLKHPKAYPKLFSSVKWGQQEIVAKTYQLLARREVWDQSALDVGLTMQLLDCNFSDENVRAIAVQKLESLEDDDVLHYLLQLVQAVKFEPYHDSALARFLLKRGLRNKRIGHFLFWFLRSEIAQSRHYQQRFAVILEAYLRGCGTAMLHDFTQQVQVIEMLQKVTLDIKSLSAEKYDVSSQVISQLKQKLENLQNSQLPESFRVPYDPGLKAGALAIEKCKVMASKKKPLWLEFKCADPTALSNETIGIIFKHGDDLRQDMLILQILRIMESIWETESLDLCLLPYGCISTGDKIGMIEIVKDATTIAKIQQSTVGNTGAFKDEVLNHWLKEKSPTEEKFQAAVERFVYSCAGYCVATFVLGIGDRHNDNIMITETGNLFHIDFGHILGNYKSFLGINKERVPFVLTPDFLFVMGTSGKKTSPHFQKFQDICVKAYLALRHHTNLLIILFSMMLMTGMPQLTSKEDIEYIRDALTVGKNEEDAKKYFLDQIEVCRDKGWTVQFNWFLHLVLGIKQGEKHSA
In a further assay the test system is class I PI3Ks. The settings on record: cited from earlier work.
A further assay concerns the target mTORC1/2 (Homo sapiens, UniProt P42345). To be noted: in words; cited from earlier work.
A further assay has as its system Rec-ven-R cells. Kind of assay: CellTiter-Glo Luminescent Cell viability Assay, abemaciclib single agent. The settings on record: 72h, acquired venetoclax resistance. It is filed as cell-based. On the procedure:
(§1) IC50 values were calculated using GraphPad Prism 8 for each cell line. Student's t-test was performed to compare the difference between vehicle and treated groups. Two-way analysis of variance (ANOVA) was conducted to analyze the tumor growth in vivo experiments. P values less than 0.05 were considered statistically significant.
On the technique in general: Cellular ATP, detected with luciferase, serves as a proxy for viable cell number.

In assay [1] the test system is MCL cell lines (Mino, Rec-1, Maver-1, Z138, JeKo-1). The description is as above. It is filed as cell-based. The settings on record: 72h; range over venetoclax sensitive (Mino, Rec-1, Maver-1, Z138) and primary resistant (JeKo-1) MCL cells. On the procedure:
as §1

The subject of a further assay is Mino-ven-R cells. The description is as above. The class given is cell-based. The settings on record: 72h, acquired venetoclax resistance. On the procedure:
as §1

We go through 19 compounds from US20250041300A1, “PHARMACEUTICAL COMBINATION COMPRISING ABEMACICLIB AND A PI3K AND/OR A MTOR INHIBITOR FOR THE TREATMENT OF MANTLE CELL LYMPHOMA” (Board of Regents, The University of Texas System, priority 2021, published 2025).

Chain of PI3Kβ (P42338 whole entry): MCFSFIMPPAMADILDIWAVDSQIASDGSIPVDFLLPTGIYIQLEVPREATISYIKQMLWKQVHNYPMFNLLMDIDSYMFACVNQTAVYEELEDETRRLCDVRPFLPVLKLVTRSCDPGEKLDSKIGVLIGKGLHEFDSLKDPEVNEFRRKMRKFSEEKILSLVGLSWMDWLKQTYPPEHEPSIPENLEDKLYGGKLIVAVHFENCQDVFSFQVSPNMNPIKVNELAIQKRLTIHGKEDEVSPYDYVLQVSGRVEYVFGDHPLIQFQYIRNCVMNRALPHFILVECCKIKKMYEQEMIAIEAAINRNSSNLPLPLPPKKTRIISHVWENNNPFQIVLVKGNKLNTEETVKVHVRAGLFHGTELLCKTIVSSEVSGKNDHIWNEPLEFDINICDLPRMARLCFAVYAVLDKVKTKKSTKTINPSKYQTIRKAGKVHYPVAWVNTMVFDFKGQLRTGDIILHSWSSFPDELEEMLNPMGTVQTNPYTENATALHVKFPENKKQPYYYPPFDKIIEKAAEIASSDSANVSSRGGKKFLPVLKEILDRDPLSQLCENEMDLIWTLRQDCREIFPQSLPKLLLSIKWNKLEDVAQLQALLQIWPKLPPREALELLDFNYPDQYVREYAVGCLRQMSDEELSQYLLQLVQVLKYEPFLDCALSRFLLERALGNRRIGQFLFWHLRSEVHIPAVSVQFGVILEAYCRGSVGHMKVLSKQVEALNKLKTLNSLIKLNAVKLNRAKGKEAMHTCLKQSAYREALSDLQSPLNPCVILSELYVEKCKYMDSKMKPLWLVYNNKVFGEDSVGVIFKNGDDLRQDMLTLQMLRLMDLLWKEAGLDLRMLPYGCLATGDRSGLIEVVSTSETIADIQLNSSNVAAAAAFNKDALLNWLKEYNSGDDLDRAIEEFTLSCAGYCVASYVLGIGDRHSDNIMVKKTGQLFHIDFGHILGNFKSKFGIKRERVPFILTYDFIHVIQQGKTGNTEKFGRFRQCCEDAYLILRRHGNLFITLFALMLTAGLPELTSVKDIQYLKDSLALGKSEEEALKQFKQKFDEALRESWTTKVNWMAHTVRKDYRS
Chain of PI3Kβ (P27986 whole entry partner): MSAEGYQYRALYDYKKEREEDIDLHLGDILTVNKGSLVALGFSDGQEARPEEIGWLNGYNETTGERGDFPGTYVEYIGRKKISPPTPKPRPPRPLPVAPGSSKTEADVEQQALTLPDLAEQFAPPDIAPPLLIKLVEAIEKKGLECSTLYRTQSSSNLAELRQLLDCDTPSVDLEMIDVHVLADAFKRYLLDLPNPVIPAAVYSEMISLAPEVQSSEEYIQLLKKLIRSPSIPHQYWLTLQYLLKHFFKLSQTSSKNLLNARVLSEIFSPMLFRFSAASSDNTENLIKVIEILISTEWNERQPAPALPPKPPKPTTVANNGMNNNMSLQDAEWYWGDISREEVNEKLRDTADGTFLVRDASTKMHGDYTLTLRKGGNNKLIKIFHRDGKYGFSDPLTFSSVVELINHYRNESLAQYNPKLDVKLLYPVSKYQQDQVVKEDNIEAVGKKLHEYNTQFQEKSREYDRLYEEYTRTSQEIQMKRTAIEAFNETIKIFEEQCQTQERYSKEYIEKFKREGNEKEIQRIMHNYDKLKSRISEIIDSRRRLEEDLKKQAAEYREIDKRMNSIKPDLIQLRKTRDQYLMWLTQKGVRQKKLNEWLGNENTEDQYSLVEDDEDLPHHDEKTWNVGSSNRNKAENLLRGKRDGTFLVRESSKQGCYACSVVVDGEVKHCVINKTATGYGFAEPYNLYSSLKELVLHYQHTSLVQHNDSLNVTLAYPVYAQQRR
Chain of PI3Kα (P42336 whole entry): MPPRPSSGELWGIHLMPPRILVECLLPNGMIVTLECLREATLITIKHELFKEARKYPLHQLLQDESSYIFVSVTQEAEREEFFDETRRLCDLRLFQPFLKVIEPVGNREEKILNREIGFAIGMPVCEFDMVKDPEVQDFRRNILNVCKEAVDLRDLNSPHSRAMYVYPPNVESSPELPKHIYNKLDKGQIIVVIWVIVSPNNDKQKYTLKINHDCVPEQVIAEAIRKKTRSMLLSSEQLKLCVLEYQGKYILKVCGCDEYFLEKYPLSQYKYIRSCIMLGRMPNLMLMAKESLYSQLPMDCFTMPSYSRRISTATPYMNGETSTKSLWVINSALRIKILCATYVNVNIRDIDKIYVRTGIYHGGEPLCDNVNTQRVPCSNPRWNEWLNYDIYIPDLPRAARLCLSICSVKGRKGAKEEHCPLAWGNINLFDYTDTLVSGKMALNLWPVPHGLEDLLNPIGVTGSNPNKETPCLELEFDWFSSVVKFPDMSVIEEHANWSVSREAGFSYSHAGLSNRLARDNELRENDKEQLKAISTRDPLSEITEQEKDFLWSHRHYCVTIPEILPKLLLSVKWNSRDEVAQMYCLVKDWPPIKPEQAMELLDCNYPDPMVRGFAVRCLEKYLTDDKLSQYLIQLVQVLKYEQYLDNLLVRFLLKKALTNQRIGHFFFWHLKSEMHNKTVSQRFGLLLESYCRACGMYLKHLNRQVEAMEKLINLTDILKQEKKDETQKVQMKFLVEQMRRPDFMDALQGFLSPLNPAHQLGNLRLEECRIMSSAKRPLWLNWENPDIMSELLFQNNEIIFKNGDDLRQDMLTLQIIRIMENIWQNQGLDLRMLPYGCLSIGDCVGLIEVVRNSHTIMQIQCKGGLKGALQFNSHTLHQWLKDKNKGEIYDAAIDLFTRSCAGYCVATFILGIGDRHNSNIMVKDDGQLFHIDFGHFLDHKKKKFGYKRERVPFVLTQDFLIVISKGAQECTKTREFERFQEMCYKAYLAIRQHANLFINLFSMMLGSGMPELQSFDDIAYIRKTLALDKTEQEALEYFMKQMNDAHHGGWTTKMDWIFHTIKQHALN
Chain of PI3Kα (P27986 whole entry partner): as the sequence (P27986 whole entry partner) above
Chain of PI3Kδ (O00329 whole entry): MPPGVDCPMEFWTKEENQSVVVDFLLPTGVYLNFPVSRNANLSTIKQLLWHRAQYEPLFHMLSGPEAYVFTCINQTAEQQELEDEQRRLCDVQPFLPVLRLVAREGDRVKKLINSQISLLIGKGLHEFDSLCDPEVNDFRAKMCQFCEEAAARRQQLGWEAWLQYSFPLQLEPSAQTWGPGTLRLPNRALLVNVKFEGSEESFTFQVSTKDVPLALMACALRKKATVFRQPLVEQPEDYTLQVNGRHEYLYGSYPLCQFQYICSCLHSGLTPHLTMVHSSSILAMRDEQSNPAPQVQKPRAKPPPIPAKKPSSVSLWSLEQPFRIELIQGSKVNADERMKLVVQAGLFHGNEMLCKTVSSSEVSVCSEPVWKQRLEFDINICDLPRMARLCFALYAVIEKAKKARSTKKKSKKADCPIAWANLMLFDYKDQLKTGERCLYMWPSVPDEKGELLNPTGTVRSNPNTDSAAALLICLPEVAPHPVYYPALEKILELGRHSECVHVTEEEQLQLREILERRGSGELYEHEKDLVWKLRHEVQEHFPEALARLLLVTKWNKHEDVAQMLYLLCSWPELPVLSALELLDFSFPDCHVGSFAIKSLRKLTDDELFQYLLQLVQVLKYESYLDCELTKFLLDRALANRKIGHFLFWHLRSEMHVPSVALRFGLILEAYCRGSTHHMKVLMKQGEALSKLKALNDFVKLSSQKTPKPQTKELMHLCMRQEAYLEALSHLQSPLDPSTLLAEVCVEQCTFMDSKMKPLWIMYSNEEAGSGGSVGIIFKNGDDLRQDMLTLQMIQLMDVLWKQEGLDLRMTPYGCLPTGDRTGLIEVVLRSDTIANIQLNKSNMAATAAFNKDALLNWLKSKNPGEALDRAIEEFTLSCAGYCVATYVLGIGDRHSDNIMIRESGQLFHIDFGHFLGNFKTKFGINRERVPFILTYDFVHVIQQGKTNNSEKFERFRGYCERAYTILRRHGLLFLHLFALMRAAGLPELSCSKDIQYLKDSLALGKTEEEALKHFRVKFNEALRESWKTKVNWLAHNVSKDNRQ
Chain of PI3Kδ (P27986 whole entry partner): as the sequence (P27986 whole entry partner) above

For the compound `C[C@@H](Nc1cc(F)cc(F)c1)c1cc(C(=O)N(C)C)cc2c(=O)cc(N3CCOCC3)oc12` [AZD8186, 8-[(1R)-1-(3,5-difluoroanilino)ethyl]-N,N-dimethyl-2-morpholin-4-yl-4-oxochromene-6-carboxamide], the “IC50 against PI3Kδ (order of magnitude in words)” value (“IC50 against PI3Kδ” for short) at PI3Kδ is on record as “nanomolar”.

Consider `C[C@H](Nc1ncnc2nc[nH]c12)c1nc2ccc(F)cc2c(=O)n1-c1ccccc1` [Acalisib, 6-fluoro-3-phenyl-2-[(1S)-1-(7H-purin-6-ylamino)ethyl]quinazolin-4-one], for which the “IC50 against PI3Kδ” value on PI3Kδ is “nanomolar”.

On to `Cc1c(CN2CCN(C(=O)[C@H](C)O)CC2)sc2c(N3CCOCC3)nc(-c3cnc(N)nc3)nc12` [Apitolisib, (2S)-1-[4-[[2-(2-aminopyrimidin-5-yl)-7-methyl-4-morpholin-4-ylthieno[3,2-d]pyrimidin-6-yl]methyl]piperazin-1-yl]-2-hydroxypropan-1-one], for which, on mTOR, the “IC50 against mTOR (order of magnitude in words)” value (from here on “IC50 against mTOR”) is given as “nanomolar”.

As for `COc1ccc(-c2ccc3ncc4c(c3c2)n(-c2ccc(N3CCNCC3)c(C(F)(F)F)c2)c(=O)n4C)cn1` [BGT-226, 8-(6-methoxypyridin-3-yl)-3-methyl-1-[4-piperazin-1-yl-3-(trifluoromethyl)phenyl]imidazo[4,5-c]quinolin-2-one], on PI3Kβ, the “IC50 against PI3Kβ (order of magnitude in words)” value (“IC50 against PI3Kβ” for short) was “nanomolar”. Also, at PI3Kα, the “IC50 against PI3Kα (order of magnitude in words)” value (“IC50 against PI3Kα” for short) was “nanomolar”. Besides, the “IC50 against mTOR” value at mTOR is recorded as “nanomolar”. For the same compound, on PI3Kδ, the “IC50 against PI3Kδ” value was “nanomolar”. Further, at PI3Kγ, the “IC50 against PI3Kγ (order of magnitude in words)” value (from here on “IC50 against PI3Kγ”) is “nanomolar”.

Regarding `CS(=O)(=O)N1CCc2c(-c3cnc(N)nc3)nc(N3CCOCC3)nc21` [CH5132799, 5-(7-(methylsulfonyl)-2-morpholino-6,7-dihydro-5H-pyrrolo[2,3-d]pyrimidin-4-yl)pyrimidin-2-amine], the “IC50 against class I PI3Ks (order of magnitude in words)” value with class I PI3Ks was “nanomolar”.

With `COc1cccc2cc(-c3nc([C@H]4CC[C@H](C(=O)O)CC4)n4ncnc(N)c34)[nH]c12` [OSI-027, 4-[4-amino-5-(7-methoxy-1H-indol-2-yl)imidazo[5,1-f][1,2,4]triazin-7-yl]cyclohexane-1-carboxylic acid], the “IC50 against mTOR” value at mTOR was “nanomolar”.

For the compound `COc1ncc(-c2ccc3nccc(-c4ccnnc4)c3c2)cc1NS(=O)(=O)c1ccc(F)cc1F` [Omipalisib, 2,4-difluoro-N-[2-methoxy-5-(4-pyridazin-4-ylquinolin-6-yl)pyridin-3-yl]benzenesulfonamide], on PI3Kγ, the “IC50 against PI3Kγ” value was “nanomolar”.

Turning to `O=C(Nc1ccncc1)Nc1ccc(-c2nc(N3CCOCC3)nc(N3C4CCC3COC4)n2)cc1` [PKI-179, 1-[4-[4-morpholin-4-yl-6-(3-oxa-8-azabicyclo[3.2.1]octan-8-yl)-1,3,5-triazin-2-yl]phenyl]-3-pyridin-4-ylurea], the “IC50 against PI3Kβ” value at PI3Kβ is “nanomolar”. Besides, at PI3Kα, the “IC50 against PI3Kα” value is “nanomolar”. In addition, the “IC50 against mTOR” value on mTOR is “nanomolar”. On PI3Kδ, the “IC50 against PI3Kδ” value is given as “nanomolar”. The “IC50 against PI3Kγ” value on PI3Kγ is on record as “nanomolar”.

On to `CCOc1c([C@H](C)n2nc(C)c3c(N)ncnc32)cc(Cl)c(F)c1[C@@H]1CNC(=O)C1` [Parsaclisib, (4R)-4-[3-[(1S)-1-(4-amino-3-methylpyrazolo[3,4-d]pyrimidin-1-yl)ethyl]-5-chloro-2-ethoxy-6-fluorophenyl]pyrrolidin-2-one], for which the “IC50 against PI3Kδ” value at PI3Kδ is on record as “nanomolar”.

Regarding `COc1ccc(Cl)c(Nc2nc3ccccc3nc2NS(=O)(=O)c2cccc(NC(=O)C(C)(C)N)c2)c1` [Pilaralisib, 2-amino-N-[3-[[3-(2-chloro-5-methoxyanilino)quinoxalin-2-yl]sulfamoyl]phenyl]-2-methylpropanamide], the “IC50 against PI3Kβ” value at PI3Kβ is recorded as “nanomolar”. Further, on PI3Kα, the “IC50 against PI3Kα” value was “nanomolar”. Also, the “IC50 against PI3Kδ” value at PI3Kδ is listed as “nanomolar”. Moreover, at PI3Kγ, the “IC50 against PI3Kγ” value was “nanomolar”.

In the case of `CO[C@@H](C)Cn1c(=O)n(C)c2cnc3ccc(-c4cncc(C(C)(C)O)c4)cc3c21` [Samotolisib, 8-[5-(2-hydroxypropan-2-yl)pyridin-3-yl]-1-[(2S)-2-methoxypropyl]-3-methylimidazo[4,5-c]quinolin-2-one], at mTORC1/2, the “concentrations at which mTORC1/2 is inhibited” value is reported as “low nanomolar concentrations”.

For the compound `Nc1nc2cc(-c3ccc4ncc(C(=O)N5CCOCC5)n4c3)ccc2o1` [Serabelisib, [6-(2-amino-1,3-benzoxazol-5-yl)imidazo[1,2-a]pyridin-3-yl]-morpholin-4-ylmethanone], on PI3Kα, the “IC50 against PI3Kα” value is “nanomolar”.

On to `C=CCN(/C=C1/C(=O)O[C@H](COC)[C@@]2(C)C1=C(O)C(=O)C1=C2[C@H](OC(C)=O)C[C@]2(C)C(=O)CC[C@@H]12)CC=C` [Sonolisib, [(3αR,6E,9S,9αR,10R,11αS)-6-[bis(prop-2-enyl)aminomethylidene]-5-hydroxy-9-(methoxymethyl)-9α,11α-dimethyl-1,4,7-trioxo-2,3,3a,9,10,11-hexahydroindeno[4,5-h]isochromen-10-yl]acetate], for which the “IC50 against PI3Kα” value on PI3Kα is reported as “nanomolar”. Also, on PI3Kδ, the “IC50 against PI3Kδ” value is “nanomolar”. Further, the “IC50 against PI3Kγ” value at PI3Kγ is “nanomolar”.

With `Cc1nc(-c2cn3c(n2)-c2ccc(-c4cnn(C(C)(C)C(N)=O)c4)cc2OCC3)n(C(C)C)n1` [Taselisib, 2-methyl-2-[4-[2-(5-methyl-2-propan-2-yl-1,2,4-triazol-3-yl)-5,6-dihydroimidazo[1,2-d][1,4]benzoxazepin-9-yl]pyrazol-1-yl]propanamide], the “IC50 against PI3Kβ” value on PI3Kβ is “nanomolar”. Also, the “IC50 against PI3Kγ” value on PI3Kγ is “nanomolar”.

For the compound `CO[C@H]1C[C@@H]2CC[C@@H](C)[C@@](O)(O2)C(=O)C(=O)N2CCCC[C@H]2C(=O)O[C@H]([C@H](C)C[C@@H]2CC[C@@H](OC(=O)C(C)(CO)CO)[C@H](OC)C2)CC(=O)[C@H](C)/C=C(\C)[C@@H](O)[C@@H](OC)C(=O)[C@H](C)C[C@H](C)/C=C/C=C/C=C/1C` [Temsirolimus, [(1R,2R,4S)-4-[(2R)-2-[(1R,9S, 12S, 15R, 16E,18R, 19R,21R,23S,24E,26E,28E,30S,32S,35R)-1,18-dihydroxy-19,30-dimethoxy-15,17,21,23,29,35-hexamethyl-2,3,10, 14,20-pentaoxo-11,36-dioxa-4-azatricyclo[30.3.1.04,9]hexatriaconta-16,24,26,28-tetraen-12-yl]propyl]-2-methoxycyclohexyl]3-hydroxy-2-(hydroxymethyl)-2-methylpropanoate], on mTOR, the “IC50 against mTOR” value is reported as “micromolar”.

For the compound `CC[C@H](Nc1ncnc2[nH]cnc12)c1oc2ccccc2c(=O)c1-c1cccc(F)c1` [Tenalisib, 3-(3-fluorophenyl)-2-[(1S)-1-(7H-purin-6-ylamino)propyl]chromen-4-one], the “IC50 against PI3Kδ” value on PI3Kδ is given as “nanomolar”. The “IC50 against PI3Kγ” value on PI3Kγ is listed as “nanomolar”.

As to `CCn1c(=O)c(-c2ccn[nH]2)cc2c(C)nc(N)nc21` [Voxtalisib, 2-amino-8-ethyl-4-methyl-6-(1H-pyrazol-5-yl)pyrido[2,3-d]pyrimidin-7-one], at PI3Kβ, the “IC50 against PI3Kβ” value is recorded as “nanomolar”. The “IC50 against PI3Kα” value on PI3Kα is “nanomolar”. Also, the “IC50 against mTOR” value at mTOR is recorded as “nanomolar”. For the same compound, the “IC50 against PI3Kδ” value on PI3Kδ was “nanomolar”. In addition, the “IC50 against PI3Kγ” value on PI3Kγ is given as “nanomolar”.

As to `CN1CCC(c2ccccc2CC(C)(C)Nc2nc(N3CCOCC3)nc(-n3c(C(F)F)nc4ccccc43)n2)CC1` [Zandelisib, 4-[2-(difluoromethyl)benzimidazol-1-yl]-N-[2-methyl-1-[2-(1-methylpiperidin-4-yl)phenyl]propan-2-yl]-6-morpholin-4-yl-1,3,5-triazin-2-amine], the “IC50 against PI3Kδ” value at PI3Kδ was “nanomolar”.

A word on the IC50: it is the concentration that inhibits the measured activity by half. The low end stands for greater potency in that assay, the high end for weaker potency in that assay. Consider `CCN1CCN(Cc2ccc(Nc3ncc(F)c(-c4cc(F)c5nc(C)n(C(C)C)c5c4)n3)nc2)CC1` [abemaciclib], for which the IC50 is 4.4 µM in the assay with Rec-ven-R cells, 70 to 952 nM in [1] and 6 µM in the assay with Mino-ven-R cells.
